Laboratory results reported in PubChem BioAssay (NCI).
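Method: 48-hour compound exposure of cells in 96-well plates, five concentrations, linear interpolation of endpoints. The concentration for full growth arrest is given as TGI.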

What was measured:
Assay in all cases: NCI tumour cell line growth inhibition, 48 h
SF-539 CNS = system: SF-539 CNS
K-562 leukemia = system: K-562 leukemia
SNB-75 CNS = system: SNB-75 CNS
HOP-92 NSCLC = system: HOP-92 NSCLC
MDA-N = system: MDA-N
EKVX NSCLC = system: EKVX NSCLC
HCT-116 colon = system: HCT-116 colon
RPMI-8226 leukemia = system: RPMI-8226 leukemia
NCI-H522 lung = system: NCI-H522 lung
CCRF-CEM leukemia = system: CCRF-CEM leukemia
UO-31 renal = system: UO-31 renal
SK-MEL-5 melanoma = system: SK-MEL-5 melanoma
UACC-257 melanoma = system: UACC-257 melanoma
TK-10 renal = system: TK-10 renal
SF-268 CNS = system: SF-268 CNS
SF-295 CNS = system: SF-295 CNS
M14 melanoma = system: M14 melanoma
NCI-H226 lung = system: NCI-H226 lung
NCI-H23 lung = system: NCI-H23 lung
BT-549 breast = system: BT-549 breast
ACHN renal = system: ACHN renal
HT29 colon = system: HT29 colon
NCI-H460 lung = system: NCI-H460 lung
COLO 205 colon = system: COLO 205 colon
SW-620 colon = system: SW-620 colon
HS 578T breast = system: HS 578T breast
HCT-15 colon = system: HCT-15 colon
T-47D breast = system: T-47D breast
PC-3 prostate = system: PC-3 prostate
MCF7 breast = system: MCF7 breast
SK-MEL-2 melanoma = system: SK-MEL-2 melanoma
CAKI-1 renal = system: CAKI-1 renal
A498 renal = system: A498 renal
KM12 colon = system: KM12 colon
OVCAR-8 ovarian = system: OVCAR-8 ovarian
LOX IMVI melanoma = system: LOX IMVI melanoma
HL-60(TB) leukemia = system: HL-60(TB) leukemia
U251 CNS = system: U251 CNS
MDA-MB-435 = system: MDA-MB-435
RXF 393 renal = system: RXF 393 renal
MDA-MB-231 breast = system: MDA-MB-231 breast
SR leukemia = system: SR leukemia
OVCAR-3 ovarian = system: OVCAR-3 ovarian
786-0 renal = system: 786-0 renal
SK-OV-3 ovarian = system: SK-OV-3 ovarian
UACC-62 melanoma = system: UACC-62 melanoma
OVCAR-5 ovarian = system: OVCAR-5 ovarian
MOLT-4 leukemia = system: MOLT-4 leukemia
SNB-19 CNS = system: SNB-19 CNS
SN12C renal = system: SN12C renal
OVCAR-4 ovarian = system: OVCAR-4 ovarian
HOP-62 NSCLC = system: HOP-62 NSCLC
MALME-3M melanoma = system: MALME-3M melanoma
HCC-2998 colon = system: HCC-2998 colon
DU-145 prostate = system: DU-145 prostate
A549 NSCLC = system: A549 NSCLC
SK-MEL-28 melanoma = system: SK-MEL-28 melanoma
NCI/ADR-RES ovarian = system: NCI/ADR-RES ovarian
IGROV1 ovarian = system: IGROV1 ovarian

Measured: TGI

CCCCCOC(=O)C(=O)Nc1n[nH]nc1C(N)=O
> 100 µM: SF-539 CNS | K-562 leukemia | SNB-75 CNS | HOP-92 NSCLC | MDA-N | EKVX NSCLC | HCT-116 colon | RPMI-8226 leukemia | NCI-H522 lung | CCRF-CEM leukemia | UO-31 renal | SK-MEL-5 melanoma | UACC-257 melanoma | TK-10 renal | SF-268 CNS | SF-295 CNS | M14 melanoma | NCI-H226 lung | NCI-H23 lung | BT-549 breast | ACHN renal | HT29 colon | NCI-H460 lung | COLO 205 colon | SW-620 colon | HS 578T breast | HCT-15 colon | T-47D breast | PC-3 prostate | MCF7 breast | SK-MEL-2 melanoma | CAKI-1 renal | A498 renal | KM12 colon | OVCAR-8 ovarian | LOX IMVI melanoma | HL-60(TB) leukemia | U251 CNS | MDA-MB-435 | RXF 393 renal | MDA-MB-231 breast | SR leukemia | OVCAR-3 ovarian | 786-0 renal | SK-OV-3 ovarian | UACC-62 melanoma | OVCAR-5 ovarian | MOLT-4 leukemia | SNB-19 CNS | SN12C renal | OVCAR-4 ovarian | HOP-62 NSCLC | MALME-3M melanoma | HCC-2998 colon | DU-145 prostate | A549 NSCLC | SK-MEL-28 melanoma | NCI/ADR-RES ovarian | IGROV1 ovarian

C[C@H](CCC(=O)O)[C@H]1CC[C@H]2[C@@H]3[C@@H](O)C[C@@H]4C[C@H](O)CC[C@]4(C)[C@H]3CC[C@]12C
> 100 µM: SF-539 CNS | K-562 leukemia | SNB-75 CNS | HOP-92 NSCLC | MDA-N | EKVX NSCLC | HCT-116 colon | RPMI-8226 leukemia | NCI-H522 lung | CCRF-CEM leukemia | UO-31 renal | SK-MEL-5 melanoma | UACC-257 melanoma | TK-10 renal | SF-268 CNS | SF-295 CNS | M14 melanoma | NCI-H226 lung | NCI-H23 lung | BT-549 breast | ACHN renal | HT29 colon | NCI-H460 lung | COLO 205 colon | SW-620 colon | HS 578T breast | HCT-15 colon | T-47D breast | PC-3 prostate | MCF7 breast | SK-MEL-2 melanoma | CAKI-1 renal | A498 renal | KM12 colon | OVCAR-8 ovarian | LOX IMVI melanoma | HL-60(TB) leukemia | U251 CNS | MDA-MB-435 | RXF 393 renal | MDA-MB-231 breast | SR leukemia | OVCAR-3 ovarian | 786-0 renal | SK-OV-3 ovarian | UACC-62 melanoma | OVCAR-5 ovarian | MOLT-4 leukemia | SNB-19 CNS | SN12C renal | OVCAR-4 ovarian | HOP-62 NSCLC | MALME-3M melanoma | HCC-2998 colon | DU-145 prostate | A549 NSCLC | SK-MEL-28 melanoma | NCI/ADR-RES ovarian | IGROV1 ovarian
